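Growth conditions: 96-well plates. Treatment: test compound, 48 hours, 5 concentrations. Analysis: linear interpolation between bracketing concentrations; unreached endpoints set to highest concentration. GI50 marks 50% less growth.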 Activity calls are given as the source filed them. No stated cut-off is given here; in the data, active = GI50 up to about 1.1 µM and inactive = higher.
How the values were obtained:
Assay in all cases: growth of human tumour cells (NCI), 48 h
786-0 = tested on: 786-0
BT-549 = tested on: BT-549
DU-145 = tested on: DU-145
HCT-116 = tested on: HCT-116
HCT-15 = tested on: HCT-15
HL-60 = tested on: HL-60
HOP-92 = tested on: HOP-92
LOX IMVI = tested on: LOX IMVI
MCF7 = tested on: MCF7
MDA-N = tested on: MDA-N
MOLT-4 = tested on: MOLT-4
Malme-3M = tested on: Malme-3M
NCI-H522 = tested on: NCI-H522
OVCAR-3 = tested on: OVCAR-3
OVCAR-5 = tested on: OVCAR-5
SF-295 = tested on: SF-295
SK-OV-3 = tested on: SK-OV-3
SNB-75 = tested on: SNB-75
UACC-62 = tested on: UACC-62
UO-31 = tested on: UO-31

Row | SMILES | GI50 (786-0) | GI50 (BT-549) | GI50 (DU-145) | GI50 (HCT-116) | GI50 (HCT-15) [µM] | GI50 (HL-60) | GI50 (HOP-92) | GI50 (LOX IMVI) | GI50 (MCF7) | GI50 (MDA-N) | GI50 (MOLT-4) | GI50 (Malme-3M) | GI50 (NCI-H522) | GI50 (OVCAR-3) | GI50 (OVCAR-5) | GI50 (SF-295) | GI50 (SK-OV-3) | GI50 (SNB-75) | GI50 (UACC-62) | GI50 (UO-31)
1 | C=C1C[C@H](O)[C@H](Br)C(C)(C)C12CCC(C)(Cl)C(Br)C2 (stereo not given in full) | 5.48 µM (inactive) | 7.53 µM (inactive) | 4.84 µM (inactive) | 6.38 µM (inactive) | 7.45 | 0.508 µM (active) | 1.5 µM (inactive) | 10 µM (inactive) | 3.25 µM (inactive) | 1.39 µM (inactive) | 0.451 µM (active) | 5.87 µM (inactive) | 3.83 µM (inactive) | 4.3 µM (inactive) | 0.762 µM (active) | 1.19 µM (inactive) | 3.03 µM (inactive) | 1.94 µM (inactive) | 5.85 µM (inactive) | 7.93 µM (inactive)
2 | C/C=C(\N=C=S)C(=O)OC1C(COC(C)=O)OC([C@]2(O)CC(=O)C(N)=C(C(=O)O)C2=O)C(O)C1OC1CC(OC)C(O)([C@@H](C)OC(=O)[C@@H](C)CC)C(C)O1 (stereo not given in full) | 12.3 µM (inactive) | 7.43 µM (inactive) | 18.9 µM (inactive) | 7.83 µM (inactive) | 16 | 2.12 µM (inactive) | 3.45 µM (inactive) | 6.34 µM (inactive) | 14.5 µM (inactive) | 13.2 µM (inactive) | 2.44 µM (inactive) | 9.57 µM (inactive) | 2.17 µM (inactive) | 15.8 µM (inactive) | 20.7 µM (inactive) | 18.1 µM (inactive) | 21.5 µM (inactive) | 16.9 µM (inactive) | 5.31 µM (inactive) | 18.2 µM (inactive)
3 | COc1ccc2cc(CN3CCC(C4CCNCC4)CC3)ccc2c1 | 1.67 µM (inactive) | 8.67 µM (inactive) | 4.2 µM (inactive) | 1.8 µM (inactive) | 2.28 | 1.49 µM (inactive) | 1.79 µM (inactive) | 1.6 µM (inactive) | 2.11 µM (inactive) | 2.02 µM (inactive) | 0.437 µM (active) | 1.72 µM (inactive) | 2.17 µM (inactive) | 5.41 µM (inactive) | 7.76 µM (inactive) | 1.89 µM (inactive) | 10 µM (inactive) | 1.91 µM (inactive) | 1.97 µM (inactive) | 2.45 µM (inactive)
4 | CCOC(=O)CCc1cc(=O)oc2cc(O)cc(O)c12 | > 100 µM (inactive) | > 100 µM (inactive) | > 100 µM (inactive) | > 100 µM (inactive) | > 100 | > 100 µM (inactive) | > 100 µM (inactive) | > 100 µM (inactive) | > 100 µM (inactive) | > 100 µM (inactive) | > 100 µM (inactive) | > 100 µM (inactive) | > 100 µM (inactive) | > 100 µM (inactive) | > 100 µM (inactive) | > 100 µM (inactive) | > 100 µM (inactive) | > 100 µM (inactive) | > 100 µM (inactive) | > 100 µM (inactive)
5 | COc1ccc(OC)c(-c2nc3n(c2/C=C2/C(=O)Nc4ccccc42)CCS3)c1 | > 100 µM (inactive) | 81.5 µM (inactive) | 64.4 µM (inactive) | 45.2 µM (inactive) | 42.3 | 33.9 µM (inactive) | 48.6 µM (inactive) | 51.2 µM (inactive) | 46.7 µM (inactive) | 18.2 µM (inactive) | 27 µM (inactive) | 92.7 µM (inactive) | 34 µM (inactive) | 36.1 µM (inactive) | > 100 µM (inactive) | 29.4 µM (inactive) | 72.9 µM (inactive) | 22.3 µM (inactive) | 48.4 µM (inactive) | 41.4 µM (inactive)
6 | CC1(C)C/C=C\CCC(O)C(O)CCC(C)(C)C1=O (stereo not given) | > 100 µM (inactive) | > 100 µM (inactive) | > 100 µM (inactive) | > 100 µM (inactive) | > 100 | > 100 µM (inactive) | > 100 µM (inactive) | > 100 µM (inactive) | > 100 µM (inactive) | > 100 µM (inactive) | > 100 µM (inactive) | > 100 µM (inactive) | 62.2 µM (inactive) | > 100 µM (inactive) | > 100 µM (inactive) | > 100 µM (inactive) | > 100 µM (inactive) | > 100 µM (inactive) | > 100 µM (inactive) | > 100 µM (inactive)
7 | COC1/C=C\C=C(/C)C(=O)Nc2cc3nc4ccc(Br)cc4oc-3c(c2=O)CC(C)CC(OC)C(O)C(C)/C=C(\C)C1OC(N)=O (stereo not given) | 0.0227 µM (active) | 0.00429 µM (active) | 0.0458 µM (active) | 0.0276 µM (active) | 0.142 | 0.0128 µM (active) | 0.0134 µM (active) | 0.0565 µM (active) | 0.000752 µM (active) | 0.00451 µM (active) | < 0.0103 µM (active) | 0.0179 µM (active) | 0.01 µM (active) | 0.082 µM (active) | 1.64 µM (inactive) | 12.6 µM (inactive) | 0.129 µM (active) | 7.08 µM (inactive) | 0.0391 µM (active) | 0.12 µM (active)
8 | CCc1ccc(/C=C/C(=O)C2CN(CC)CCC2(O)/C=C/c2ccc(CC)cc2)cc1 (stereo not given) | 1.75 µM (inactive) | 4.68 µM (inactive) | 9.55 µM (inactive) | 1.79 µM (inactive) | 3.24 | 2.77 µM (inactive) | 1.71 µM (inactive) | 1.51 µM (inactive) | 2.42 µM (inactive) | 3.23 µM (inactive) | 2.2 µM (inactive) | 7.31 µM (inactive) | 2.59 µM (inactive) | 1.71 µM (inactive) | 3.16 µM (inactive) | 2.94 µM (inactive) | 12.3 µM (inactive) | 9.33 µM (inactive) | 4.92 µM (inactive) | 3.2 µM (inactive)
9 | N#Cc1cccc(N2C(=O)C3C4C=CC(C3C2=O)C2C(=O)N(c3cccc(C#N)c3)C(=O)C42)c1 (stereo not given) | 33.1 µM (inactive) | 17.7 µM (inactive) | > 100 µM (inactive) | 21 µM (inactive) | > 63.1 | > 80.9 µM (inactive) | 15.2 µM (inactive) | 61.9 µM (inactive) | > 100 µM (inactive) | > 100 µM (inactive) | 41.8 µM (inactive) | 53.6 µM (inactive) | 22.7 µM (inactive) | > 77.3 µM (inactive) | > 63.1 µM (inactive) | 17.1 µM (inactive) | 17.1 µM (inactive) | 6.12 µM (inactive) | 54 µM (inactive) | 49.1 µM (inactive)
10 | Oc1cc(-c2ccc(F)cc2)nc2ncc(Cl)cc12 | 32.7 µM (inactive) | > 100 µM (inactive) | 21.4 µM (inactive) | 9.51 µM (inactive) | 4.62 | 3.38 µM (inactive) | 2.94 µM (inactive) | 28.6 µM (inactive) | 12.3 µM (inactive) | 2.94 µM (inactive) | 20.7 µM (inactive) | 15.7 µM (inactive) | 10.5 µM (inactive) | 20.6 µM (inactive) | 55.3 µM (inactive) | 18.1 µM (inactive) | 45.5 µM (inactive) | 11.7 µM (inactive) | 9.71 µM (inactive) | > 85.9 µM (inactive)
